Experimental data from patent publication US20150159167A1, “Plants Tolerant to HPPD Inhibitor Herbicides” (Bayer CropScience AG, priority 2009, published 2015).

Tests used:
[1] = system: T0 rice plants containing FMP38e; assay: Rice glasshouse trial, response to tembotrione; format: in vivo; conditions: 100 g AI/ha, 7 DAT
Description: T0 rooted plantlets (either selected on phosphinothricin alone or on phosphinothricin supplemented with tembotrione) were transferred to soil in the glasshouse. Following an acclimation period, sufficiently grown plants were treated with the different HPPD inhibitor herbicides. As an example, T0 plants were sprayed with tembotrione of formulation type WP20 100 g AI/ha supplemented with ammonium sulfate and methyl ester raps oil. Seven days after the spray application, the symptoms due to the application of the herbicide were evaluated and compared the symptoms observed on wild type plants submitted to the same treatment.
The plants were classified in three categories based on the phenotype developed in response to the herbicide seven days after the treatment.

[2] = target: Synechococcus sp. HPPD "SEQ ID No. 5"; assay: HPLC assay of HPPD activity, in vitro kinetic properties; format: biochemical; conditions: 2 mM HPP
Description: Km, Vmax, and kcat values for different HPPD enzyme preparations and Ki, K1=Kon, and K−1=Koff for different HPPD inhibitors were determined using a HPLC assay for measurements of HPPD activity. […] All assays were started by the addition of HPPD enzyme to the assay mixture and stopped at a series of times between 0 and 240 s by addition of 200 μl of the reaction mixture to reaction assay tubes containing 20 μl 10% perchloric acid. Precipitated protein was pelleted by a 5 minute centrifugation at 10,000 g. […] A standard set of concentrations of HGA were used to provide a standard curve in order to calibrate the 292 nm absorbance of the HGA peak versus HGA concentration.
For Km and Vmax value determinations the initial rates of the HPPD reaction at different substrate concentrations were determined from plots of HGA formed versus time and fitted to the Michaelis-Menten equation for unireactant enzymes using the ID Business Solutions Ltd. (idbs.com) XLfit software suite. For the determination of Ki, K1=Kon, and K=−1=Koff values the time-courses of the HPPD reaction at different inhibitor concentrations were fitted to the equations for Mechanism A, competitive inhibition, for tight-binding inhibitors (Cha, S. (1975) Tight-binding inhibitors-I. Kinetic behaviour. Biochemical Pharmacology 24, 2177-2185) using the ID Business Solutions Ltd. XLfit software suite
(§1) In below given table 1, “Km” (Michaelis-Menten constant) means the kinetic parameter that is used to characterise an enzyme, and it is defined as the concentration of substrate that permits half maximal rate of the reaction. Km is further defined as the substrate concentration at which the reaction rate reaches half of its maximum value (Vmax/2) where Vmax has the meaning of being the maximum velocity of the reaction.
(§2) Kon=K1 equals the association rate constant of the […] binding and Koff=K−1 equals the rate constant of the enzyme-inhibitor complex dissociation. Ki defines the inhibition constant.

[3] = system: rice shoots transformed with FMP38e; assay: Bleaching of rice shoots on MS/2 with tembotrione; format: in vivo; conditions: evaluation 2 weeks later
Description: Rice transformation was achieved using methods well known in the art. Briefly, the Agrobacterium tumefaciens mediated transformation of rice was performed using immature embryos, from the restorer line 6G4317. Briefly, panicles from donor plants were harvested 8-12 days after pollination. The lemma of the immature seed was removed. Seeds were thereafter sterilized using a NaOCl based solution and Tween. The seeds were preinduced with […]. Agrobacterium tumefaciens cells are then co-cultivated with the preinduced seeds in presence of acetosyringone for 4 days at 24° C. in the dark. Thereafter, coleoptile from embryos are removed and washed, then put on a media supplemented with phosphinothricin for 3 weeks at 28° C. under a photoperiod rhythm of 16 hours. Then the growing calli were cut off from the embryos, and transferred to fresh media containing triacillin, phosphinothricin, L-proline and copper (II) sulfate.
For each callusline and per Tembotrione concentration, 3 shoots, and randomly isolated from different callus pieces, were transferred to MS/2 with Tembotrione. As a general rule, transfer of the shoots from regeneration medium to MS/2 occurred 9 weeks after calli had been put on regeneration medium.
Cultures were incubated at 26.5° C. (16 hrs. photoperiod) and evaluation of symptoms occurred 2 weeks later.
New developing leaves of the shoots transferred have been scored on the basis of bleaching and categorized in 3 groups:
a) no bleaching b) intermediate bleaching c) complete bleaching
Within the category ‘intermediate bleaching’ a distinction has been made between shoots having new leaves showing only very little bleaching symptoms and thus tending to green leaves, and shoots with new leaves almost completely bleached.

[4] = target: T1, Arabidopsis thaliana HPPD "SEQ ID No. 10" (Arabidopsis thaliana, UniProt P93836); assay: HPLC assay of HPPD activity, in vitro kinetic properties; format: biochemical
T1 construct: Preparation of Synechococcus sp; Ala + 6xHis (N); made in house; host or cells: E. coli K-12 BL21 (pQE30-AtHPPD)
T1 sequence (P93836 with tags, fused parts or gaps): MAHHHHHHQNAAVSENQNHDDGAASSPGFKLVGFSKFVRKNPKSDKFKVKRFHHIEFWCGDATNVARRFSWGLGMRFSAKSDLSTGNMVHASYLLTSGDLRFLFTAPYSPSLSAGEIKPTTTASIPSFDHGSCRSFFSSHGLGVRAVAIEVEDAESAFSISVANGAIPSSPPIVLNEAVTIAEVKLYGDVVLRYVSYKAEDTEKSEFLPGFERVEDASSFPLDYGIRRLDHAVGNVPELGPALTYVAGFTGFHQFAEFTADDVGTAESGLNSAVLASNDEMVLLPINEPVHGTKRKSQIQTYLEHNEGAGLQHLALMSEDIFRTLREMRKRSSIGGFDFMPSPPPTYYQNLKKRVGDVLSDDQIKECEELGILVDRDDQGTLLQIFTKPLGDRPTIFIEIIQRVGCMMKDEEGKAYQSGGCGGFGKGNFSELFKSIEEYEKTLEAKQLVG
Description: Km, Vmax, and kcat values for different HPPD enzyme preparations and Ki, K1=Kon, and K−1=Koff for different HPPD inhibitors were determined using a HPLC assay for measurements of HPPD activity. […] All assays were started by the addition of HPPD enzyme to the assay mixture and stopped at a series of times between 0 and 240 s by addition of 200 μl of the reaction mixture to reaction assay tubes containing 20 μl 10% perchloric acid. Precipitated protein was pelleted by a 5 minute centrifugation at 10,000 g.
For Km and Vmax value determinations the initial rates of the HPPD reaction at different substrate concentrations were determined from plots of HGA formed versus time and fitted to the Michaelis-Menten equation for unireactant enzymes using the ID Business Solutions Ltd. (idbs.com) XLfit software suite.
as §1, §2

SMILES: CS(=O)(=O)c1ccc(C(=O)C2C(=O)CCCC2=O)c(Cl)c1COCC(F)(F)F [Tembotrione, 2-[2-chloro-4-(methylsulfonyl)-3-[(2,2,2,-tri-fluoroethoxy)methyl]benzoyl]-1,3-cyclo-hexanedione]
- Class I (no injuries), number of plants [1]: 9
- Class II (injury: 10-40%), number of plants [1]: 8
- Class III (injury: 41-100%), number of plants [1]: 8
- Ki [2]: 1.2 µM
- k1 (Kon) [2]: 41000 M⁻¹ s⁻¹
- k−1 (Koff) [2]: 0.05 s⁻¹
- No of shoots completely bleached ([3]; 1 μM): 0
- No of shoots with intermediate bleaching ([3]; 1 μM): 4
- No of shoots without bleaching ([3]; 1 μM): 38
- No of shoots with intermediate bleaching ([3]; 5 μM): 35
- No of shoots without bleaching ([3]; 5 μM): 3
- kon ([4]; read-out: k1 (Kon)): 230000 M⁻¹ s⁻¹
- koff ([4]; read-out: k−1 (Koff)): 0.0035 s⁻¹
